# According to ChEMBL document CHEMBL5724914, “Linking interpersonal differences in gut microbiota composition and drug biotransformation activity” (2024):
# Settings: human gut metagenome, 24 h, 2 µM
# Also: call rule not given here.
row,Bacterial Biotransformation,Compound
1,Compound metabolized,CCCCC(=O)N(Cc1ccc(-c2ccccc2-c2nnn[nH]2)cc1)[C@H](C(=O)O)C(C)C
2,Compound metabolized,CN(C)CCC=C1c2ccccc2C=Cc2ccccc21 [CYCLOBENZAPRINE]

# Assay: (§1) The drug is tested on Z-019 corresponding to rat gut metagenome with ENA study accession number: PRJEB37062 and ENA sample accession number: ERS12561818 for biotransformation under anaerobic condition. The drug concentrations were measured over 9 timepoints collected between 0 and 24 hours of incubation by liquid-chromatography-coupled mass spectrometry (LC–MS)
# Settings: 2 µM
row,Bacterial Biotransformation,Compound
1,Compound NOT metabolized,CCCCC(=O)N(Cc1ccc(-c2ccccc2-c2nnn[nH]2)cc1)[C@H](C(=O)O)C(C)C
2,Compound NOT metabolized,CN(C)CCC=C1c2ccccc2C=Cc2ccccc21 [CYCLOBENZAPRINE]

# Settings: human gut metagenome, 24 h, 2 µM
# Remark: another data set of the same source
row,Bacterial Biotransformation,Compound
1,Compound metabolized,CCCCC(=O)N(Cc1ccc(-c2ccccc2-c2nnn[nH]2)cc1)[C@H](C(=O)O)C(C)C
2,Compound metabolized,CN(C)CCC=C1c2ccccc2C=Cc2ccccc21 [CYCLOBENZAPRINE]

# Assay: as §1, with “on Z-013” for “on Z-019”, “to rabbit” for “to rat”, “number: ERS12561813” for “number: ERS12561818”
# Settings: 2 µM
row,Bacterial Biotransformation,Compound
1,Compound NOT metabolized,CCCCC(=O)N(Cc1ccc(-c2ccccc2-c2nnn[nH]2)cc1)[C@H](C(=O)O)C(C)C
2,Compound NOT metabolized,CN(C)CCC=C1c2ccccc2C=Cc2ccccc21 [CYCLOBENZAPRINE]

# Assay: as §1, with “on WLS-007” for “on Z-019”, “to human” for “to rat”, “number: ERS12561742” for “number: ERS12561818”
# Settings: 2 µM
row,Bacterial Biotransformation,Compound
1,Compound metabolized,CCCCC(=O)N(Cc1ccc(-c2ccccc2-c2nnn[nH]2)cc1)[C@H](C(=O)O)C(C)C
2,Compound metabolized,CN(C)CCC=C1c2ccccc2C=Cc2ccccc21 [CYCLOBENZAPRINE]

# Assay: as §1, with “on Z-017” for “on Z-019”, “to mouse” for “to rat”, “number: ERS12561816” for “number: ERS12561818”
# Settings: 2 µM
row,Bacterial Biotransformation,Compound
1,Compound NOT metabolized,CCCCC(=O)N(Cc1ccc(-c2ccccc2-c2nnn[nH]2)cc1)[C@H](C(=O)O)C(C)C
2,Compound NOT metabolized,CN(C)CCC=C1c2ccccc2C=Cc2ccccc21 [CYCLOBENZAPRINE]

# Settings: human gut metagenome, 24 h, 2 µM
# Remark: another data set of the same source
row,Bacterial Biotransformation,Compound
1,Compound metabolized,CCCCC(=O)N(Cc1ccc(-c2ccccc2-c2nnn[nH]2)cc1)[C@H](C(=O)O)C(C)C
2,Compound NOT metabolized,CN(C)CCC=C1c2ccccc2C=Cc2ccccc21 [CYCLOBENZAPRINE]

# Settings: human gut metagenome, 24 h, 2 µM
# Remark: another data set of the same source
row,Bacterial Biotransformation,Compound
1,Compound metabolized,CCCCC(=O)N(Cc1ccc(-c2ccccc2-c2nnn[nH]2)cc1)[C@H](C(=O)O)C(C)C
2,Compound NOT metabolized,CN(C)CCC=C1c2ccccc2C=Cc2ccccc21 [CYCLOBENZAPRINE]

# Settings: human gut metagenome, 24 h, 2 µM
# Remark: another data set of the same source
row,Bacterial Biotransformation,Compound
1,Compound metabolized,CCCCC(=O)N(Cc1ccc(-c2ccccc2-c2nnn[nH]2)cc1)[C@H](C(=O)O)C(C)C
2,Compound metabolized,CN(C)CCC=C1c2ccccc2C=Cc2ccccc21 [CYCLOBENZAPRINE]

# Assay: as §1, with “on Z-016” for “on Z-019”, “to mouse” for “to rat”, “number: ERS12561815” for “number: ERS12561818”
# Settings: 2 µM
row,Bacterial Biotransformation,Compound
1,Compound NOT metabolized,CCCCC(=O)N(Cc1ccc(-c2ccccc2-c2nnn[nH]2)cc1)[C@H](C(=O)O)C(C)C
2,Compound NOT metabolized,CN(C)CCC=C1c2ccccc2C=Cc2ccccc21 [CYCLOBENZAPRINE]

# Settings: human gut metagenome, 24 h, 2 µM
# Remark: another data set of the same source
row,Bacterial Biotransformation,Compound
1,Compound metabolized,CCCCC(=O)N(Cc1ccc(-c2ccccc2-c2nnn[nH]2)cc1)[C@H](C(=O)O)C(C)C
2,Compound metabolized,CN(C)CCC=C1c2ccccc2C=Cc2ccccc21 [CYCLOBENZAPRINE]

# Assay: as §1, with “Z-008” for “Z-019”, “to” for “to rat gut”, “ERS12561808” for “ERS12561818”
# Settings: 2 µM
row,Bacterial Biotransformation,Compound
1,Compound NOT metabolized,CCCCC(=O)N(Cc1ccc(-c2ccccc2-c2nnn[nH]2)cc1)[C@H](C(=O)O)C(C)C
2,Compound NOT metabolized,CN(C)CCC=C1c2ccccc2C=Cc2ccccc21 [CYCLOBENZAPRINE]

# Assay: as §1, with “Z-014” for “Z-019”, “ERS12561814” for “ERS12561818”
# Settings: 2 µM
row,Bacterial Biotransformation,Compound
1,Compound NOT metabolized,CCCCC(=O)N(Cc1ccc(-c2ccccc2-c2nnn[nH]2)cc1)[C@H](C(=O)O)C(C)C
2,Compound NOT metabolized,CN(C)CCC=C1c2ccccc2C=Cc2ccccc21 [CYCLOBENZAPRINE]

# Assay: as §1, with “on WLS-086” for “on Z-019”, “to human” for “to rat”, “number: ERS12561752” for “number: ERS12561818”
# Settings: 2 µM
row,Bacterial Biotransformation,Compound
1,Compound metabolized,CCCCC(=O)N(Cc1ccc(-c2ccccc2-c2nnn[nH]2)cc1)[C@H](C(=O)O)C(C)C
2,Compound metabolized,CN(C)CCC=C1c2ccccc2C=Cc2ccccc21 [CYCLOBENZAPRINE]

# Assay: as §1, with “on WLS-073” for “on Z-019”, “to human” for “to rat”, “number: ERS12561749” for “number: ERS12561818”
# Settings: 2 µM
row,Bacterial Biotransformation,Compound
1,Compound NOT metabolized,CCCCC(=O)N(Cc1ccc(-c2ccccc2-c2nnn[nH]2)cc1)[C@H](C(=O)O)C(C)C
2,Compound metabolized,CN(C)CCC=C1c2ccccc2C=Cc2ccccc21 [CYCLOBENZAPRINE]

# Assay: as §1, with “on WLS-310” for “on Z-019”, “to human” for “to rat”, “number: ERS12561785” for “number: ERS12561818”
# Settings: 2 µM
row,Bacterial Biotransformation,Compound
1,Compound metabolized,CCCCC(=O)N(Cc1ccc(-c2ccccc2-c2nnn[nH]2)cc1)[C@H](C(=O)O)C(C)C
2,Compound metabolized,CN(C)CCC=C1c2ccccc2C=Cc2ccccc21 [CYCLOBENZAPRINE]

# Assay: as §1, with “on WLS-220” for “on Z-019”, “to human” for “to rat”, “number: ERS12561769” for “number: ERS12561818”
# Settings: 2 µM
row,Bacterial Biotransformation,Compound
1,Compound NOT metabolized,CCCCC(=O)N(Cc1ccc(-c2ccccc2-c2nnn[nH]2)cc1)[C@H](C(=O)O)C(C)C
2,Compound metabolized,CN(C)CCC=C1c2ccccc2C=Cc2ccccc21 [CYCLOBENZAPRINE]

# Settings: human gut metagenome, 24 h, 2 µM
# Remark: another data set of the same source
row,Bacterial Biotransformation,Compound
1,Compound metabolized,CCCCC(=O)N(Cc1ccc(-c2ccccc2-c2nnn[nH]2)cc1)[C@H](C(=O)O)C(C)C
2,Compound metabolized,CN(C)CCC=C1c2ccccc2C=Cc2ccccc21 [CYCLOBENZAPRINE]

# Settings: human gut metagenome, 24 h, 2 µM
# Remark: another data set of the same source
row,Bacterial Biotransformation,Compound
1,Compound metabolized,CCCCC(=O)N(Cc1ccc(-c2ccccc2-c2nnn[nH]2)cc1)[C@H](C(=O)O)C(C)C
2,Compound metabolized,CN(C)CCC=C1c2ccccc2C=Cc2ccccc21 [CYCLOBENZAPRINE]

# Assay: as §1, with “on WLS-038” for “on Z-019”, “to human” for “to rat”, “number: ERS12561745” for “number: ERS12561818”
# Settings: 2 µM
row,Bacterial Biotransformation,Compound
1,Compound metabolized,CCCCC(=O)N(Cc1ccc(-c2ccccc2-c2nnn[nH]2)cc1)[C@H](C(=O)O)C(C)C
2,Compound NOT metabolized,CN(C)CCC=C1c2ccccc2C=Cc2ccccc21 [CYCLOBENZAPRINE]
